Measured values published in patent publication US20250228882A1, “ORALLY-BIOAVAILABLE NUCLEOSIDE ANALOGS” (Venatorx Pharmaceuticals, Inc., priority 2022, published 2025).

Assay: Bidirectional Caco-2 permeability assay
Type: in vitro ADME
Conditions: human, Caco-2
Description: The bidirectional permeability of compounds across the Caco-2 cell monolayer was assessed. The Caco-2 model is a widely used in vitro model for small intestinal absorption and potential for efflux. Cell culture. Caco-2 cells were grown in DMEM supplemented with 10% fetal bovine serum (FBS), 1% Penicillin-Streptomycin and 1% MEMNEAA. The cells were incubated at 37° C., 5% CO2/95% air and saturated humidity. After reaching 80-90% confluency, the cells were gently detached with trypsin. Cells at passage 39 were seeded on the 24-well BD insert system at the density of 8×10^4 cells/cm^2 and cultured for 19 days with medium changed every 2-3 days. Measure the transepithelial electrical resistance (TEER) value of each well. The wells can be used only when their TEER values are greater than 600 Ohms/cm^2.
Transport assay. After removing the cell culture medium from the 24-well insert plate, the cells were rinsed with warm transport buffer. Appropriate dosing and receiving solutions were applied to the donor and receiver chambers to initiate the transport assay in apical to basolateral (A to B) or basolateral to apical (B to A) directions (500 and 1300 μL for apical and basolateral wells, respectively). Duplicate wells in each direction were used for the test compound and control compound. The plate was incubated in CO2 incubator at 37° C., with 5% CO2/95% air and saturated humidity without shaking. The sample after 10-minute incubation was used as the To sample, and the sample after 90-minute incubation was used as the T90 sample. To and T90 samples were collected from the donor and receiver side of each well at the designed timepoint, mixed with the transport buffer and acetonitrile/MeOH (1:1, v/v) and the internal standard for LC/MS/MS analysis. All samples were vortexed and centrifuged at 4000 rpm at 4° C. for 15 minutes, diluted with pure water and stored at 4° C. before bioanalysis by LC/MS/MS.
Sample analysis. The concentrations of test compounds and control compounds in Caco-2 cells were quantitatively determined by LC/MS/MS method after protein precipitation.
Calculations. The apparent permeability (Papp, cm/s), efflux ratio (ER) and recovery parameters were calculated for Caco-2 drug transport assay using the following equations: […]
where VR is the solution volume in the receiver chamber (0.4 mL on the apical side, 1.2 mL on the basolateral side); Area is the surface area for the insert membrane, i.e., 0.3 cm^2 for the area of the monolayer; Time is incubation time, expressed in seconds, i. e., 5400 s (90 min) for the current experiment; Co is the initial concentration of test compound or peak area ratio of control compounds in the donor chamber (M); VD is the volume in the donor chambers (0.4 mL on the apical side, 1.2 mL on the basolateral side); CD and CR are the final concentrations of test compounds or peak area ratio of control compounds in donor and receiver chambers, respectively.
Compounds with Papp<1.0 are classified as low permeability, Papp between 1-10 are classified as medium permeability, and Papp>10 are classified as high permeability. An efflux ratio (ER)>2 indicates the compounds are potential substrates for intestinal cell efflux transporters.

Row | Structure (SMILES) | Papp A→B at 90 min | Papp B→A at 90 min | efflux ratio at 90 min
1 | CC(=O)Nc1ncnn2c([C@]3(C#N)O[C@H](COC(=O)[C@@H](N)C(C)(C)C)[C@@H](OC(=O)CC4CCCCC4)[C@H]3O)ccc12 [Compound 33, ((2R,3S,4R,5R)-5-(4-acetamidopyrrolo[2,1-f][1,2,4]triazin-7-yl)-5-cyano-3-(2-cyclohexylacetoxy)-4-hydroxytetrahydrofuran-2-yl)methyl (S)-2-amino-3,3-dimethylbutanoate] | 24.4 ×10⁻⁶ cm/s |  | 
2 | CC(=O)OCOC(=O)Nc1ncnn2c([C@]3(C#N)O[C@H](COC(=O)[C@@H](N)C(C)(C)C)[C@@H](OC(=O)CC4CCCCC4)[C@H]3O)ccc12 [Compound 36, ((2R,3S,4R,5R)-5-(4-(((acetoxymethoxy)carbonyl)amino)pyrrolo[2,1-f][1,2,4]triazin-7-yl)-5-cyano-3-(2-cyclohexylacetoxy)-4-hydroxytetrahydrofuran-2-yl)methyl (S)-2-amino-3,3-dimethylbutanoate] | 0.93 ×10⁻⁶ cm/s | 1.15 ×10⁻⁶ cm/s | 1.24
3 | CC(C)(C)[C@H](N)C(=O)OC[C@H]1O[C@@](C#N)(c2ccc3c(NC(=O)CC4CCCCC4)ncnn23)[C@H](O)[C@@H]1O [Compound 39, ((2R,3S,4R,5R)-5-cyano-5-(4-(2-cyclohexylacetamido)pyrrolo[2,1-f][1,2,4]triazin-7-yl)-3,4-dihydroxytetrahydrofuran-2-yl)methyl (S)-2-amino-3,3-dimethylbutanoate] | 0.72 ×10⁻⁶ cm/s | 16.9 ×10⁻⁶ cm/s | 23.4
4 | CCC(=O)O[C@H]1[C@@H](O)[C@](C#N)(c2ccc3c(NC(=O)OCOC(=O)C(C)(C)C)ncnn23)O[C@@H]1COC(=O)[C@@H](N)C(C)(C)C [Compound 40, ((2R,3S,4R,5R)-5-cyano-4-hydroxy-5-(4-((((pivaloyloxy)methoxy)carbonyl)amino)pyrrolo[2,1-f][1,2,4]triazin-7-yl)-3-(propionyloxy)tetrahydrofuran-2-yl)methyl (S)-2-amino-3,3-dimethylbutanoate] | 0.13 ×10⁻⁶ cm/s | 4.5 ×10⁻⁶ cm/s | 34.4
5 | CCCCCCOC(=O)Nc1ncnn2c([C@]3(C#N)O[C@H](COC(=O)[C@@H](N)C(C)(C)C)[C@@H](O)[C@H]3O)ccc12 [Compound 41, ((2R,3S,4R,5R)-5-cyano-5-(4-(((hexyloxy)carbonyl)amino)pyrrolo[2,1-f][1,2,4]triazin-7-yl)-3,4-dihydroxytetrahydrofuran-2-yl)methyl (S)-2-amino-3,3-dimethylbutanoate] | 1.41 ×10⁻⁶ cm/s | 14.6 ×10⁻⁶ cm/s | 10.4
6 | CCCCCCOC(=O)Nc1ncnn2c([C@]3(C#N)O[C@H](COC(=O)[C@@H](N)C(C)(C)C)[C@@H](OC(=O)CC)[C@H]3O)ccc12 [Compound 42, ((2R,3S,4R,5R)-5-cyano-5-(4-(((hexyloxy)carbonyl)amino)pyrrolo[2,1-f][1,2,4]triazin-7-yl)-4-hydroxy-3-(propionyloxy)tetrahydrofuran-2-yl)methyl (S)-2-amino-3,3-dimethylbutanoate] | 4.24 ×10⁻⁶ cm/s | 3.97 ×10⁻⁶ cm/s | 0.94
7 | CCC(=O)O[C@H]1[C@@H](O)[C@](C#N)(c2ccc3c(NC(=O)OCOC(C)=O)ncnn23)O[C@@H]1COC(=O)[C@@H](N)C(C)(C)C [Compound 43, ((2R,3S,4R,5R)-5-(4-(((acetoxymethoxy)carbonyl)amino)pyrrolo[2,1-f][1,2,4]triazin-7-yl)-5-cyano-4-hydroxy-3-(propionyloxy)tetrahydrofuran-2-yl)methyl (S)-2-amino-3,3-dimethylbutanoate] | 1.49 ×10⁻⁶ cm/s | 1.02 ×10⁻⁶ cm/s | 0.69
8 | CC(=O)OCOC(=O)Nc1ncnn2c([C@]3(C#N)O[C@H](COC(=O)CC4CCCCC4)[C@@H](OC(=O)[C@@H](N)C(C)(C)C)[C@H]3O)ccc12 [Compound 46, (2R,3S,4R,5R)-5-(4-(((acetoxymethoxy)carbonyl)amino)pyrrolo[2,1-f][1,2,4]triazin-7-yl)-5-cyano-2-((2-cyclohexylacetoxy)methyl)-4-hydroxytetrahydrofuran-3-yl (S)-2-amino-3,3-dimethylbutanoate] | 1.45 ×10⁻⁶ cm/s | 0.79 ×10⁻⁶ cm/s | 0.54
9 | CCCCC(=O)Nc1ncnn2c([C@]3(C#N)O[C@H](COC(=O)CC4CCC4)[C@@H](OC(=O)[C@@H](N)C(C)(C)C)[C@H]3O)ccc12 [Compound 47, (2R,3S,4R,5R)-5-cyano-2-((2-cyclobutylacetoxy)methyl)-4-hydroxy-5-(4-pentanamidopyrrolo[2,1-f][1,2,4]triazin-7-yl)tetrahydrofuran-3-yl (S)-2-amino-3,3-dimethylbutanoate] | 4.57 ×10⁻⁶ cm/s | 12.2 ×10⁻⁶ cm/s | 2.68
10 | CCCCCC(=O)Nc1ncnn2c([C@]3(C#N)O[C@H](COC(=O)CC4CCC4)[C@@H](OC(=O)[C@@H](N)C(C)(C)C)[C@H]3O)ccc12 [Compound 48, (2R,3S,4R,5R)-5-cyano-2-((2-cyclobutylacetoxy)methyl)-5-(4-hexanamidopyrrolo[2,1-f][1,2,4]triazin-7-yl)-4-hydroxytetrahydrofuran-3-yl (S)-2-amino-3,3-dimethylbutanoate] | 2.02 ×10⁻⁶ cm/s | 4.72 ×10⁻⁶ cm/s | 2.34
11 | CCOC(C)(C)C(=O)Nc1ncnn2c([C@]3(C#N)O[C@H](COC(=O)CC4CCC4)[C@@H](OC(=O)[C@@H](N)C(C)(C)C)[C@H]3O)ccc12 [Compound 49, (2R,3S,4R,5R)-5-cyano-2-((2-cyclobutylacetoxy)methyl)-5-(4-(2-ethoxy-2-methylpropanamido)pyrrolo[2,1-f][1,2,4]triazin-7-yl)-4-hydroxytetrahydrofuran-3-yl (S)-2-amino-3,3-dimethylbutanoate] | 6.24 ×10⁻⁶ cm/s | 5.67 ×10⁻⁶ cm/s | 0.91
12 | CCC(CC)C(=O)Nc1ncnn2c([C@]3(C#N)O[C@H](COC(=O)CC4CCC4)[C@@H](OC(=O)[C@@H](N)C(C)(C)C)[C@H]3O)ccc12 [Compound 50, (2R,3S,4R,5R)-5-cyano-2-((2-cyclobutylacetoxy)methyl)-5-(4-(2-ethylbutanamido)pyrrolo[2,1-f][1,2,4]triazin-7-yl)-4-hydroxytetrahydrofuran-3-yl (S)-2-amino-3,3-dimethylbutanoate] | 8.66 ×10⁻⁶ cm/s | 8.25 ×10⁻⁶ cm/s | 0.95
13 | CCCCC(=O)Nc1ncnn2c([C@]3(C#N)O[C@H](COC(=O)CC4CCCC4)[C@@H](OC(=O)[C@@H](N)C(C)(C)C)[C@H]3O)ccc12 [Compound 54, (2R,3S,4R,5R)-5-cyano-2-((2-cyclopentylacetoxy)methyl)-4-hydroxy-5-(4-pentanamidopyrrolo[2,1-f][1,2,4]triazin-7-yl)tetrahydrofuran-3-yl (S)-2-amino-3,3-dimethylbutanoate] | 3.41 ×10⁻⁶ cm/s | 5.47 ×10⁻⁶ cm/s | 1.6
14 | CCCCCC(=O)Nc1ncnn2c([C@]3(C#N)O[C@H](COC(=O)CC4CCCC4)[C@@H](OC(=O)[C@@H](N)C(C)(C)C)[C@H]3O)ccc12 [Compound 55, (2R,3S,4R,5R)-5-cyano-2-((2-cyclopentylacetoxy)methyl)-5-(4-hexanamidopyrrolo[2,1-f][1,2,4]triazin-7-yl)-4-hydroxytetrahydrofuran-3-yl (S)-2-amino-3,3-dimethylbutanoate] | 2.74 ×10⁻⁶ cm/s | 3.63 ×10⁻⁶ cm/s | 1.33
15 | CCC(CC)C(=O)Nc1ncnn2c([C@]3(C#N)O[C@H](COC(=O)CC4CCCC4)[C@@H](OC(=O)[C@@H](N)C(C)(C)C)[C@H]3O)ccc12 [Compound 56, (2R,3S,4R,5R)-5-cyano-2-((2-cyclopentylacetoxy)methyl)-5-(4-(2-ethylbutanamido)pyrrolo[2,1-f][1,2,4]triazin-7-yl)-4-hydroxytetrahydrofuran-3-yl (S)-2-amino-3,3-dimethylbutanoate] | 7.61 ×10⁻⁶ cm/s | 7.57 ×10⁻⁶ cm/s | 0.99
16 | COC(C)(C)C(=O)Nc1ncnn2c([C@]3(C#N)O[C@H](COC(=O)CC4CCCC4)[C@@H](OC(=O)[C@@H](N)C(C)(C)C)[C@H]3O)ccc12 [Compound 57, (2R,3S,4R,5R)-5-cyano-2-((2-cyclopentylacetoxy)methyl)-4-hydroxy-5-(4-(2-methoxy-2-methylpropanamido)pyrrolo[2,1-f][1,2,4]triazin-7-yl)tetrahydrofuran-3-yl (S)-2-amino-3,3-dimethylbutanoate] | 16.4 ×10⁻⁶ cm/s | 10.1 ×10⁻⁶ cm/s | 0.61
